Oligonucleotides are written 5' to 3', each unit as a sugar letter and its base; * is a phosphorothioate linkage, no mark a phosphodiester; rarer units and linkages stand in square brackets, end groups in braces. Plain capitals give the bases only. d = 2'-deoxy (DNA); r = 2'-OH (RNA)

The series has as its target UBE2W. In words: reporter assay of Huesken 2005. The settings on record: siRNA. A general note: Reporter assays use an easily measured gene product as a stand-in for the process of interest.
Further: test concentration or dose not given here.

As to “sense rUrArCrCrUrUrArUrArUrGrArArGrGrGrGrArAdTdT / antisense rUrUrCrCrCrCrUrUrCrArUrArUrArArGrGrUrAdCdC”, the normalised inhibition (eCFP-eYFP dual reporter) was found to be 111%. With “sense rArGrUrCrGrArUrArUrCrCrUrUrUrUrGrArCrUdTdT / antisense rArGrUrCrArArArArGrGrArUrArUrCrGrArCrUdAdC” the figure was 81.4%; with “sense rArArArArUrUrCrArArUrUrArCrArCrArGrUrGdTdT / antisense rCrArCrUrGrUrGrUrArArUrUrGrArArUrUrUrUdGdA”, 76.8%; with “sense rArGrArArUrCrCrArArArGrArArArArCrArArAdTdT / antisense rUrUrUrGrUrUrUrUrCrUrUrUrGrGrArUrUrCrUdTdG”, 106%. Turning to “sense rArUrCrArGrUrUrUrGrUrCrUrUrArGrCrArUrUdTdT / antisense rArArUrGrCrUrArArGrArCrArArArCrUrGrArUdTdG”, the normalised inhibition (eCFP-eYFP dual reporter) amounted to 107%. Take “sense rArArUrCrArGrUrUrUrGrUrCrUrUrArGrCrArUdTdT / antisense rArUrGrCrUrArArGrArCrArArArCrUrGrArUrUdGdG”: the normalised inhibition (eCFP-eYFP dual reporter) was determined as 104%. With “sense rGrCrArArGrGrArArArArGrArGrArCrGrArCrCdTdT / antisense rGrGrUrCrGrUrCrUrCrUrUrUrUrCrCrUrUrGrCdAdG” the figure was 112%.

Take “sense rArArArArUrArUrUrCrCrUrGrUrUrCrArUrCrCdTdT / antisense rGrGrArUrGrArArCrArGrGrArArUrArUrUrUrUdCdA”: the normalised inhibition (eCFP-eYFP dual reporter) is 53.5%. In the case of “sense rGrUrGrCrGrArArCrArUrGrUrArArCrArArGrAdTdT / antisense rUrCrUrUrGrUrUrArCrArUrGrUrUrCrGrCrArCdAdT”, the normalised inhibition (eCFP-eYFP dual reporter) is 125%. The figure for “sense rCrUrGrUrUrCrArUrCrCrUrCrArUrGrUrUrUrAdTdT / antisense rUrArArArCrArUrGrArGrGrArUrGrArArCrArGdGdA” is 113%; for “sense rUrCrArUrCrCrUrCrArUrGrUrUrUrArUrArGrCdTdT / antisense rGrCrUrArUrArArArCrArUrGrArGrGrArUrGrAdAdC” it is 78.8%; for “sense rUrCrCrArArUrCrArGrUrUrUrGrUrCrUrUrArGdTdT / antisense rCrUrArArGrArCrArArArCrUrGrArUrUrGrGrAdCdT” it is 85%. Consider “sense rCrArArGrGrArArArArGrArGrArCrGrArCrCrAdTdT / antisense rUrGrGrUrCrGrUrCrUrCrUrUrUrUrCrCrUrUrGdCdA”, for which the normalised inhibition (eCFP-eYFP dual reporter) is 110%. With “sense rCrCrUrCrCrUrGrGrArArUrGrArCrCrUrUrArAdTdT / antisense rUrUrArArGrGrUrCrArUrUrCrCrArGrGrArGrGdTdG” the figure was 99.3%. With “sense rArUrGrUrGrCrGrArArCrArUrGrUrArArCrArAdTdT / antisense rUrUrGrUrUrArCrArUrGrUrUrCrGrCrArCrArUdAdA” the figure was 88.7%; with “sense rUrUrArCrArCrArGrUrGrGrArUrUrGrUrArGrAdTdT / antisense rUrCrUrArCrArArUrCrCrArCrUrGrUrGrUrArAdTdT”, 92.6%; with “sense rArArGrArGrUrGrUrUrCrArArArArUrUrCrArAdTdT / antisense rUrUrGrArArUrUrUrUrGrArArCrArCrUrCrUrUdCdT”, 114%. The figure for “sense rCrUrCrCrUrGrGrArArUrGrArCrCrUrUrArArAdTdT / antisense rUrUrUrArArGrGrUrCrArUrUrCrCrArGrGrArGdGdT” is 100%; for “sense rGrArArGrArCrUrGrGrUrCrCrCrCrArGrCrGrCdTdT / antisense rGrCrGrCrUrGrGrGrGrArCrCrArGrUrCrUrUrCdTdG” it is 80.5%; for “sense rUrGrCrGrArArCrArUrGrUrArArCrArArGrArAdTdT / antisense rUrUrCrUrUrGrUrUrArCrArUrGrUrUrCrGrCrAdCdA” it is 104%. For “sense rUrArCrUrGrGrUrGrArArArArUrArUrUrCrCrUdTdT / antisense rArGrGrArArUrArUrUrUrUrCrArCrCrArGrUrAdAdA”, the normalised inhibition (eCFP-eYFP dual reporter) worked out at 94.4%. Consider “sense rUrCrCrUrGrUrUrCrArUrCrCrUrCrArUrGrUrUdTdT / antisense rArArCrArUrGrArGrGrArUrGrArArCrArGrGrAdAdT”, for which the normalised inhibition (eCFP-eYFP dual reporter) is 108%.

In the case of “sense rArGrUrArGrUrCrGrArUrArUrCrCrUrUrUrUrGdTdT / antisense rCrArArArArGrGrArUrArUrCrGrArCrUrArCrUdAdA”, the normalised inhibition (eCFP-eYFP dual reporter) is 124%.

“sense rArGrGrUrGrCrArCrCrArGrGrUrArCrCrUrUrAdTdT / antisense rUrArArGrGrUrArCrCrUrGrGrUrGrCrArCrCrUdTdC”: the normalised inhibition (eCFP-eYFP dual reporter) worked out at 93.2%.

“sense rUrCrCrUrUrUrUrGrArCrUrCrUrCrCrUrCrArGdTdT / antisense rCrUrGrArGrGrArGrArGrUrCrArArArArGrGrAdTdA”: the normalised inhibition (eCFP-eYFP dual reporter) is 78.4%. For the substance “sense rArCrArGrUrGrGrArUrUrGrUrArGrArCrArUrGdTdT / antisense rCrArUrGrUrCrUrArCrArArUrCrCrArCrUrGrUdGdT”, the normalised inhibition (eCFP-eYFP dual reporter) came to 110%. The figure for “sense rUrArUrCrUrGrUrUrUrArUrCrCrArUrUrCrUrAdTdT / antisense rUrArGrArArUrGrGrArUrArArArCrArGrArUrAdTdG” is 85.9%; for “sense rUrGrUrUrUrArUrCrCrArUrUrCrUrArArCrArGdTdT / antisense rCrUrGrUrUrArGrArArUrGrGrArUrArArArCrAdGdA” it is 66.2%. The figure for “sense rGrArCrArUrGrGrArArGrGrUrGrCrArCrCrArGdTdT / antisense rCrUrGrGrUrGrCrArCrCrUrUrCrCrArUrGrUrCdTdA” is 94.9%. With “sense rCrGrArUrArUrCrCrUrUrUrUrGrArCrUrCrUrCdTdT / antisense rGrArGrArGrUrCrArArArArGrGrArUrArUrCrGdAdC” the figure was 85.7%. As for “sense rUrGrGrArArUrGrArCrCrUrUrArArArUrGrArGdTdT / antisense rCrUrCrArUrUrUrArArGrGrUrCrArUrUrCrCrAdGdG”, the normalised inhibition (eCFP-eYFP dual reporter) worked out at 96.4%.

In the case of “sense rArArUrUrUrCrArArCrUrUrCrUrArUrUrUrArAdTdT / antisense rUrUrArArArUrArGrArArGrUrUrGrArArArUrUdTdT”, the normalised inhibition (eCFP-eYFP dual reporter) was found to be 97.5%.

Take “sense rArGrCrArUrUrArUrUrArGrCrArUrGrCrUrUrUdTdT / antisense rArArArGrCrArUrGrCrUrArArUrArArUrGrCrUdAdA”: the normalised inhibition (eCFP-eYFP dual reporter) was 84.8%. For “sense rUrArUrCrCrArUrUrCrUrArArCrArGrArArGrAdTdT / antisense rUrCrUrUrCrUrGrUrUrArGrArArUrGrGrArUrAdAdA”, the normalised inhibition (eCFP-eYFP dual reporter) worked out at 83.9%.

Take “sense rGrGrUrCrArUrGrUrUrUrArCrUrGrGrUrGrArAdTdT / antisense rUrUrCrArCrCrArGrUrArArArCrArUrGrArCrCdTdG”: the normalised inhibition (eCFP-eYFP dual reporter) was 103%. Regarding “sense rUrArGrArCrArUrGrGrArArGrGrUrGrCrArCrCdTdT / antisense rGrGrUrGrCrArCrCrUrUrCrCrArUrGrUrCrUrAdCdA”, the normalised inhibition (eCFP-eYFP dual reporter) worked out at 38.9%.

In the case of “sense rGrUrUrCrArArArArUrUrCrArArUrUrArCrArCdTdT / antisense rGrUrGrUrArArUrUrGrArArUrUrUrUrGrArArCdAdC”, the normalised inhibition (eCFP-eYFP dual reporter) came out at 73.6%. With “sense rUrArArCrArGrArArGrArCrUrGrGrUrCrCrCrCdTdT / antisense rGrGrGrGrArCrCrArGrUrCrUrUrCrUrGrUrUrAdGdA” the figure was 64.7%; with “sense rArGrArGrUrGrUrUrCrArArArArUrUrCrArArUdTdT / antisense rArUrUrGrArArUrUrUrUrGrArArCrArCrUrCrUdTdC”, 109%. Take “sense rCrArUrUrArUrUrArGrCrArUrGrCrUrUrUrCrCdTdT / antisense rGrGrArArArGrCrArUrGrCrUrArArUrArArUrGdCdT”: the normalised inhibition (eCFP-eYFP dual reporter) turned out to be 93.2%. The figure for “sense rUrGrCrArCrCrArGrGrUrArCrCrUrUrArUrArUdTdT / antisense rArUrArUrArArGrGrUrArCrCrUrGrGrUrGrCrAdCdC” is 78%; for “sense rUrArUrUrCrCrUrGrUrUrCrArUrCrCrUrCrArUdTdT / antisense rArUrGrArGrGrArUrGrArArCrArGrGrArArUrAdTdT” it is 104%. The figure for “sense rUrGrGrUrGrArArArArUrArUrUrCrCrUrGrUrUdTdT / antisense rArArCrArGrGrArArUrArUrUrUrUrCrArCrCrAdGdT” is 115%. The figure for “sense rUrUrUrArArArUrUrUrArGrUrArGrUrCrGrArUdTdT / antisense rArUrCrGrArCrUrArCrUrArArArUrUrUrArArAdTdA” is 88%. Take “sense rUrGrCrUrUrUrCrCrArGrCrUrGrCrArArGrGrAdTdT / antisense rUrCrCrUrUrGrCrArGrCrUrGrGrArArArGrCrAdTdG”: the normalised inhibition (eCFP-eYFP dual reporter) was found to be 110%. With “sense rGrUrUrCrArUrCrCrUrCrArUrGrUrUrUrArUrAdTdT / antisense rUrArUrArArArCrArUrGrArGrGrArUrGrArArCdAdG” the figure was 105%; with “sense rCrCrArArArGrArArArArCrArArArArUrGrGrUdTdT / antisense rArCrCrArUrUrUrUrGrUrUrUrUrCrUrUrUrGrGdAdT”, 101%.

For the origin of these results see the OligoGym collection.
